We go through 1 molecule from patent publication USRE49351E1, “Cytoprotective agent” (Biogen MA Inc., priority 2009, dated 2023).

Marks after values point to notes of the source that are not given here.

The test system of experiment [1] is crab-eating monkey cerebral infarction model. Nature of the experiment: Crab-eating monkey cerebral infarction model (thrombotic middle cerebral artery occlusion). As to conditions: mean ± S.D. The class given is in vivo. How it is done:
A reducing effect of a cerebral infarction size and an improving effect of a neurological symptom of SMTP-7 in a crab-eating monkey cerebral infarction model were studied according to the following testing method.
SMTP-7 administration group: 10 mg/kg, 2 to 3 year old male crab-eating monkeys, 6 monkeys
Administration method of test substance: The administration volume was set at 10 mL/kg. A Surflo indwelling needle was indwelled in the left saphenous vein, 1 mg/kg (1 mL/kg) was administered 1 hour after ischemia as a bolus over 5 sec, then 9 mg/kg (9 mL/kg) was administered continuously over 30 min using a syringe pump.
Preparation of administration liquid: SMTP-7 was dissolved in a physiological saline solution at 1 mg/mL. More particularly, to 70.0 mg of a SMTP-7 sodium salt (containing 63.1 mg of SMTP-7) was added 63.1 mL of a physiological saline solution, and the liquid was stirred by a magnetic stirrer under heating in a hot-water bath (37° C.) for dissolution. An ultrasonic treatment was conducted according to need. After dissolution the liquid was subjected to filter sterilization by a sterile filter (0.22 μm, made of cellulose acetate). The administration liquid was prepared before using. After the preparation it was kept in a 37° C. hot-water bath until immediately before the use, and the administration was finished within 4 hours after the preparation.
The treatment of cerebral infarction was conducted according to the standard experimental protocol (SPHPR710-15A). More particularly, after extirpating the right eyeball, the eyeground bone outside the optic nerve exit was removed by a dental drill to expose the dura mater. The dura mater was carefully detached to identify the middle cerebral artery. The origin part of the middle cerebral artery was separated from the arachnoid mater and a light irradiation probe for generating a thrombus was fixed on the middle cerebral artery. At the distal end of the probe a probe of a pulse Doppler blood flowmeter (Crystal Bio, PDV-20) was placed. An intravenous administration of rose bengal (Wako Pure Chemical Industries, Ltd.) (20 mg/kg) over 6 min was initiated and an irradiation with green light with the wavelength of 540 nm (1.40 million LUX) was conducted for 20 min to block the middle cerebral artery by a thrombus. The initiation time of the light irradiation and the administration of the rose Bengal was defined as the initiation time of ischemia. The middle cerebral artery blood flow was measured by the pulse Doppler blood flowmeter continuously for 2 hours from the initiation time of the light irradiation and then the incision was closed. A series of procedures were carried out completely under an operating microscope to minimize intraoperative hemorrhage to the utmost. Further, the rectal temperature of an animal under operation was monitored, and the animal was kept warmed by a heating pad, so as to maintain the body temperature of the animal in a physiological range (37.0 to 38.5° C.).
Neurological symptoms as described below were observed 24 hours after ischemia according to J. Neurosci. Meth., 2001; 105: 45-53.
After the neurological symptom observation 24 hours after the operation, a euthanasia treatment was conducted by means of a megadose of pentobarbital and the brain was extirpated. Six mm-thick coronal slices were prepared and photographed for quantitative determination of a hemorrhagic infarction. Thereafter, the infarction area was stained in a 2% TTC solution and photographs were taken for quantitative determination of an infarction size. For evaluations of the hemorrhagic infarction and the infarction area, the occipital lobe side of each slice was used.
Photographs of an individual were converted to TIF images and hemorrhagic infarction areas and the respective infarction areas were marked by Photoshop 7.0 (Adobe), which sizes were then measured by Scion Image 0.4.0.3 (Scion Corporation). […]

The nature of experiment [2]: modified H-ORAC (mH-ORAC) assay. The class given is biochemical. As to conditions: acetone solution, acetone final concentration 1.25%. How it is done: To study the free radical scavenging activity of a triprenyl phenol compound, the following H-ORAC (hydrophilic oxygen radical absorbance capacity) assay, and modified H-ORAC (mH-ORAC) assay were conducted.
SMTP compounds evaluated by H-ORAC were used respectively in a form of a sodium salt aqueous solution, and the compounds evaluated by mH-ORAC were used respectively in a form of an acetone solution.
In H-ORAC a test compound was diluted appropriately with a buffer solution (75 mM phosphate buffer solution, pH 7.4) and used for measurement. In mH-ORAC a test compound was diluted appropriately by a 50% (v/v) acetone solution, prepared by diluting an acetone solution with water, to prepare a solution of 40-fold the final concentration. […] As for the reference material Trolox, 500 μM/buffer solution was diluted appropriately with a buffer solution.
To a 96-well microplate (transparent, flat bottom, black wall) 50 μL of a test compound solution or a Trolox solution was placed, and additionally 100 μL of a fluorescein 140 nM/buffer solution as a fluorescent substance was added (final concentration 70 nM), followed by incubation at 37° C. for […].
As a free radical generator, 50 μL of a 48 mM/buffer solution of 2,2′-azobis(amidinopropane)dihydrochloride was added (final concentration 12 mM), and fluorescence intensity at fluorescence wavelength of 535 nm with excitation wavelength of 485 nm was measured at 2 min intervals for 90 min. The calibration curve was prepared between the Trolox final concentrations of 5 to 15 μM. The measurement was conducted by changing the concentration with n=3, and plotted on a diagram with time on the abscissa and the fluorescence intensity on the ordinate. Therewith evaluation was made using the value obtained by reducing the area under the curve for the blank from the area under the curve for the sample. The result was expressed as an equivalent to Trolox.

Setting [3] is: 10 mg/kg i.v. 1 hour after ischemia, 24 hours after ischemia.

Take `CC(C)=CCC/C(C)=C/CC[C@@]1(C)Oc2c(c(O)cc3c2CN(CCC[C@@H](C(=O)O)N2Cc4c(cc(O)c5c4O[C@](C)(CC/C=C(\C)CCC=C(C)C)[C@@H](O)C5)C2=O)C3=O)C[C@@H]1O` [SMTP-7]: the “Occlusion Time” value in experiment [1] (0~60 min after ischemia (before administration), 10 mg/kg i.v.) came out at 45.5 ± 3.8 min. Also, in experiment [1] (setting [3]), the “Hemorrhagic infarction area size” value is recorded as 14.1 ± 7.4 (P < 0.05) mm^2, the “cerebral infarction size: Basal ganglion” value is listed as 1419.7 ± 633.8* mm^3, the “cerebral infarction size: Cerebral cortex” value was found to be 237.8 ± 198.8 mm^3 and the “cerebral infarction size: Total” value was 1745.1 ± 749.5* mm^3. In addition, in experiment [1] (setting [3]), the “cerebral infarction size: White matter” value turned out to be 87.7 ± 71.8 mm^3, the “neurological symptom score: Consciousness” value stood at 7.7 ± 2.0, the “neurological symptom score: Motor system” value was found to be 10.7 ± 2.7 and the “neurological symptom score: Sensory system” value amounted to 7.5 ± 1.6. Moreover, in experiment [1] (setting [3]), the “neurological symptom score: Skeletal muscle coordination system” value was 5.3 ± 2.4 and the “neurological symptom score: Total” value was found to be 31.2 ± 7.9. Also, in experiment [1] (10 mg/kg i.v. 1 hour after ischemia, measured for 2 hours, 6 monkeys), the “Total Occlusion Time” value was 86.8 ± 18.8 min. In addition, in experiment [1] (10 mg/kg i.v. 1 hour after ischemia, middle cerebral artery blood flow, 6 monkeys), the “Time to Occlusion” value amounted to 6.9 ± 2.5 min. Also, the “Occlusion Time” value in experiment [1] (60~120 min after ischemia, 10 mg/kg i.v. 1 hour after ischemia) amounted to 41.3 ± 18.9 min. Moreover, the “free radical scavenging activity, Trolox equivalent” value in experiment [2] worked out at 1.82 ± 0.27 molTE/mol.
